In article PMC11267923, “Metagenome-derived SusD-homologs affiliated with Bacteroidota bind to synthetic polymers” (Applied and Environmental Microbiology, 2024) one finds Kd data, which are given here for one molecule.

For one assay, the target named is T1, SusD1 (SusD1Δ1–22) (Prevotella sp. Sc00044, UniProt W5QTG3).
T1 construct: gene susD; Sec/SPII signal peptide 1-22 removed; C-terminal His6 from pET21a(+); expressed in E. coli BL21(DE3)
Description: SPR, Biacore T200, His-captured protein, single-cycle kinetics, […] fit. The assay is classed as binding.

The target in assay [1] is T2, SusD38489 (SusD38489Δ1–25).
T2 construct: gene susD; Sec/SPII signal peptide 1-25 removed; C-terminal His6 from pET21a(+); expressed in E. coli BL21(DE3)
The assay is described as above. To be noted: 25 °C; 0.1 M potassium phosphate pH 7 reference buffer; one binding site. Further details: species or system uncultured Bacteroidota bacterium.

The term Kd denotes the equilibrium constant for the complex coming apart. A higher Kd goes with a looser complex.

T1 sequence (W5QTG3 23-580 limits assumed, stated change not applied): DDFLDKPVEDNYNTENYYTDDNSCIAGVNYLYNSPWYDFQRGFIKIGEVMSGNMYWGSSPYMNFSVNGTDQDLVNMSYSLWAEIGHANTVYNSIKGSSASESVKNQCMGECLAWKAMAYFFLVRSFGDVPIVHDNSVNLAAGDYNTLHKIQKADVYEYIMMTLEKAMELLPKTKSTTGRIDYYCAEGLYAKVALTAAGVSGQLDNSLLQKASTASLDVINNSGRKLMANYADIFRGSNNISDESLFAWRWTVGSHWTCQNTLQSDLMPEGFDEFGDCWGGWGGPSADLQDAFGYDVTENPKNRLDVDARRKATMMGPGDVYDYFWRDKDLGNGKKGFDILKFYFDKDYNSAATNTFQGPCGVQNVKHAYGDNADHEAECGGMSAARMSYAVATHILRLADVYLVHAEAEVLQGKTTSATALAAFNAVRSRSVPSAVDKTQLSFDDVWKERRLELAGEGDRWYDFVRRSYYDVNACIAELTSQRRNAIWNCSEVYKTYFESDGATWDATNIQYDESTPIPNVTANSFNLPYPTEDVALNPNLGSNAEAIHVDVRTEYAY

As for `O=C(OCCO)c1ccc(C(=O)OCCO)cc1` [BHET, Bis(2-Hydroxyethyl) terephthalate], the Kd at SusD1 (SusD1Δ1–22) is 0.3 nM; in assay [1], 10 nM.
